Experimental data as given in patent US9624210B2, “Amino-pyrimidine-containing spleen tyrosine kinase (Syk) inhibitors” (Merck Sharp & Dohme Corp., priority 2012, dated 2017).

Legend:
[1] = tested on: allergic rhinitis; conditions: dosed intranasally, phase I/II study; cited from earlier work
[2] = tested on: allergic rhinitis; conditions: phase II clinical trial; cited from earlier work
[3] = molecular target: recombinant human GST-Syk (Homo sapiens (Human), UniProt P43405); assay: Homogeneous Time-Resolved Fluorescence (HTRF) assay for the recombinant human Syk enzyme; assay type: biochemical; conditions: 10-dose titration 10 μM to 0.508 nM; 25 μM ATP; values below lowest test concentration given as <0.508
Experimental: Assay 1: Homogeneous Time-Resolved Fluorescence (HTRF) Assay for the Recombinant Human Syk Enzyme A recombinant GST-hSyk fusion protein was used to measure potency of compounds to inhibit human Syk activity. The recombinant human GST-Syk (Carna Biosciences #08-176) (5 pM final concentration total protein) was incubated with various concentrations of the inhibitor diluted in DMSO (0.1% final concentration) for 10 minutes at room temperature in 15 mM Tris-HCl (pH 7.5), 0.01% Tween 20, 2 mM DTT in 384 well plate format. To initiate the reaction the biotinylated substrate peptide (250 nM final concentration) that contains the phosphorylation site for Syk was added with magnesium (5 mM final concentration) and ATP (25 μM final concentration). The final volume of the reaction was 10 μL. Phosphorylation of the peptide was allowed to proceed for 45′ at room temperature. To quench the reaction and detect the phosphorylated product, 2 nM of a Europium-anti-phosphotyrosine antibody (Perkin Elmer #AD0161) and 70 nM SA-APC (Perkin-Elmer #CR130-100) were added together in 15 mM Tris pH 7.5, 40 mM EDTA, 0.01% Tween 20. The final volume of the quenching solution was 10 μL. The resulting HTRF signal was measured after 30 minutes on a EnVision (Perkin-Elmer) reader using a time-resolved fluorescence protocol. […] Table A provides the IC50 values for representative compounds of the invention.

[4] = molecular target: phosphorylated Syk enzyme (Homo sapiens (Human), UniProt P43405); assay: Dissociation rate: enzyme-inhibitor dilution and activity recovery assay (TR-FRET); assay type: biochemical; conditions: for recovery of Syk enzyme activity following dilution of the inhibitor:Syk complex (relative to the DMSO control): 100-fold dilution after 2 hours preincubation, FIG. 1 and FIG. 2
Experimental: Assay 2: Determination of the Dissociation Rate for Compound 1B
The dissociation rate (koff) of inhibitor:phosphorylated Syk complexes was examined using an enzyme-inhibitor dilution and activity recovery assay (R. A. Copeland, Enzymes: A practical introduction to structure, Mechanism, and Data Analysis Wiley-VCH 2000 and R. A. Copeland, Evaluation of Enzyme Inhibitors in Drug Discovery John Wiley & Sons, 2005). In this assay the recovery of kinase activity following dilution is measured using a time resolved fluorescence resonance energy transfer (TR-FRET) assay. The enzyme (at 100× the usual assay concentration) and inhibitor (at 20× the usual assay concentration) are preincubated for 2 hours to ensure equilibrium is reached. The samples are then diluted 100-fold into assay buffer (1× Kinase buffer [Invitrogen, Inc], 2 mM DTT, 0.05% BSA) containing a saturating amount of competitive substrate (1 mM ATP, to minimize rebinding of inhibitor) and peptide substrate (1 μM). The final nominal enzyme concentration following dilution is 4 pM. Samples (1 μL) are periodically withdrawn from the assay plate and transferred into 50 uL of detection/quench buffer (10 nM streptavidin labeled Dylite (Perkin Elmer) and 3 nM Eu-labeled antiphosphotyrosine antibody (pY20, Perkin Elmer). After 30 minutes incubation, the assay plate was read on the Envision reader (Perkin Elmer) using the following parameters: excitation wavelength of 320 nm, and dual emission monitoring at 616 and 665 nm. The delay time was 20 μs with a 200 μs window time. The time between flashes was 16600 μs and 20 flashes were used per well.
The recovery of enzyme activity is fit to the following equation (Morrison, J. F., and Walsh, C. T., (1988) Advances in Enzymology and Related Areas of Molecular Biology, 61 201-301): P=vst+[(vi−vs)/kobs][1−exp(−kobst)]+P0 where P is the quantity of phosphorylated peptide product produced, P0 is the concentration of phosphopeptide product present at time=0 (immediately following dilution), vs is the steady-state velocity, vi is the rate at time=0, and kobs is the rate constant describing activity recovery.

SMILES	IC50 [3] [nM]	recovery of Syk enzyme activity following dilution of the inhibitor:Syk complex (relative to the DMSO control) [4]	further results
Oc1cccc(Nc2ncc(F)c(Nc3cccc(O)c3)n2)c1 [Compound R112]			PGD2 [1]: statistically significant decrease; clinical safety [1]: safe across a range of indicators; efficacy versus placebo [2]: lack of efficacy
Cc1cc(Nc2nccc(C(F)(F)F)n2)cc(-c2cnc([C@]3(O)CCCc4cc(C(=O)O)ccc43)s2)c1 [Compound 1A, (S)-5-hydroxy-5-(5-(3-methyl-5-((4-(trifluoromethyl)pyrimidin-2-yl)amino)phenyl)thiazol-2-yl)-5,6,7,8-tetrahydronaphthalene-2-carboxylic acid]	1.6		
Cc1cc(Nc2nccc(C(C)C)n2)cc(-c2cnc([C@]3(O)CC[C@@H](C(=O)O)CC3)s2)c1 [Compound A, reference compound]	< 0.508	fully recovered (relative to the DMSO control) within the first five minutes after dilution	

The next lines start with results.

IC50 [3] [nM]	SMILES	recovery of Syk enzyme activity following dilution of the inhibitor:Syk complex (relative to the DMSO control) [4]	further results
< 0.508	Cc1cc(Nc2nccc(C(F)(F)F)n2)cc(-c2cnc(C3(O)CCCc4cc(C(=O)O)ccc43)s2)c1 (racemic) [Compound 1, 5-hydroxy-5-(5-(3-methyl-5-((4-(trifluoromethyl)pyrimidin-2-yl)amino)phenyl)thiazol-2-yl)-5,6,7,8-tetrahydronaphthalene-2-carboxylic acid]		
< 0.508	Cc1cc(Nc2nccc(C(F)(F)F)n2)cc(-c2cnc([C@@]3(O)CCCc4cc(C(=O)O)ccc43)s2)c1 [Compound 1B, (R)-5-hydroxy-5-(5-(3-methyl-5-((4-(trifluoromethyl)pyrimidin-2-yl)amino)phenyl)thiazol-2-yl)-5,6,7,8-tetrahydronaphthalene-2-carboxylic acid]	only a fraction of the activity returned (relative to the DMSO control) after two hours	dissociation rate of the inhibitor:phosphorylated Syk complex [4]: slow dissociation rate; half-life of the inhibitor:Syk complex ([4]; after 100-fold dilution into 1 mM ATP, FIG. 2): > 2 h
